Experimental data taken from US9920010B2, “CXCR7 receptor modulators” (IDORSIA PHARMACEUTICALS LTD, priority 2013, dated 2018).

Target: T1, CXCR7 (Homo sapiens, UniProt P25106)
T1 construct: host or cells: CHO-K1 (PathHunter CHO-K1 CXCR7 b-arrestin cell line, stably transfected)
Assay: PathHunter CHO-K1 CXCR7 b-arrestin recruitment assay (CXCR7 agonistic activity)
Type: cell-based
Conditions: PathHunter CHO-K1 CXCR7 b-arrestin cell line
Method in brief: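 Stable CHO-K1 line with C-terminally ProLink-tagged CXCR7 and β-arrestin 2–EA fusion; β-arrestin recruitment restores β-gal activity, read by chemiluminescence after 1 h RT detection. Cells seeded 24 h, starved in OPTIMEM 3–4 h, exposed to compounds 90 min at 37 °C in HBSS/HEPES/BSA. Geometric-mean EC50 from repeated measurements.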

T1 sequence (P25106 whole entry): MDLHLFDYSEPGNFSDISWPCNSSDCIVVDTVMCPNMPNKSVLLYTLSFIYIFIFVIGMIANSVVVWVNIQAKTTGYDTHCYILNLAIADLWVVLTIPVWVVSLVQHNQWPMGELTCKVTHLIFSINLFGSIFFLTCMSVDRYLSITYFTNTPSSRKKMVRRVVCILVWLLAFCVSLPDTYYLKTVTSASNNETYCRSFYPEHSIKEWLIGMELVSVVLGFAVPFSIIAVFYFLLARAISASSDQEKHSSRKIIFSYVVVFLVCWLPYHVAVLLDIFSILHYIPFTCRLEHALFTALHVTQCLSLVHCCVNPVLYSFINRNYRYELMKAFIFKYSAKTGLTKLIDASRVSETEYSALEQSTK
T1 sequence (P32121 whole entry partner): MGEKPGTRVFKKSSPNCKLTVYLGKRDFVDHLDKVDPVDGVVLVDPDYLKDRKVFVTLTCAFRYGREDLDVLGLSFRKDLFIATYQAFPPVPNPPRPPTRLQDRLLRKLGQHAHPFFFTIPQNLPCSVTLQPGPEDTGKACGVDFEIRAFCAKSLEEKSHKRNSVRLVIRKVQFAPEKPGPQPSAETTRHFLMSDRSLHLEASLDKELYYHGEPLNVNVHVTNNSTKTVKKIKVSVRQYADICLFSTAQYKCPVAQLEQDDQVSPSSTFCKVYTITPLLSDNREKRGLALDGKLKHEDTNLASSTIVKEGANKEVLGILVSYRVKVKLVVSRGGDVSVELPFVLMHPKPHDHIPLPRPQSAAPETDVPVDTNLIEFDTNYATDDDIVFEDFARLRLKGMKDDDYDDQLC

Row | EC50 [nM] | SMILES
1 | 237 | O=C(CNc1cccc2c1CCN(C(=O)[C@@H]1C[C@@H]1F)C2)N(CCN1CCC(F)(F)CC1)Cc1ncccc1Cl (racemic) [Example 294, rac-N-(3-Chloro-pyridin-2-ylmethyl)-N-[2-(4,4-difluoro-piperidin-1-yl)-ethyl]-2-[2-((1S*,2S*)-2-fluoro-cyclopropanecarbonyl)-1,2,3,4-tetrahydro-isoquinolin-5-ylamino]-acetamide]
2 | 6 | CN(C)CCN(Cc1ccccc1C(F)(F)F)C(=O)CNc1cccc2c1CCN(CC1CCC1)C2 [Example 361, 2-(2-Cyclobutylmethyl-1,2,3,4-tetrahydro-isoquinolin-5-ylamino)-N-(2-dimethylamino-ethyl)-N-(2-trifluoromethyl-benzyl)-acetamide]
3 | 4 | CN(C)CCN(Cc1ccccc1C(F)(F)F)C(=O)CNc1cccc2c1CCN(C1CCC1)C2 [Example 352, 2-(2-Cyclobutyl-1,2,3,4-tetrahydro-isoquinolin-5-ylamino)-N-(2-dimethylamino-ethyl)-N-(2-trifluoromethyl-benzyl)-acetamide]
4 | 82 | CCCOC(=O)N1CCc2c(cccc2NCC(=O)N(CCNC)Cc2ccccc2C(F)(F)F)C1 [compound 398]
5 | 9 | COCCN1CCc2c(cccc2NCC(=O)N(CCN(C)C)Cc2ccccc2C(F)(F)F)C1 [Example 359, N-(2-(dimethylamino)ethyl)-2-((2-(2-methoxyethyl)-1,2,3,4-tetrahydroisoquinolin-5-yl)amino)-N-(2-(trifluoromethyl)benzyl)acetamide]
6 | 33 | O=C(CNc1cccc2c1CN(CC1CC1)CC2)N(CC(=O)N1CC(F)(F)C1)Cc1ncccc1C(F)(F)F [compound 483, 2-(2-Cyclopropylmethyl-1,2,3,4-tetrahydro-isoquinolin-8-ylamino)-N-[2-(3,3-difluoro-azetidin-1-yl)-2-oxo-ethyl]-N-(3-trifluoromethyl-pyridin-2-ylmethyl)-acetamide]
7 | 85 | CN(C)CCN(Cc1ncccc1Br)C(=O)CNc1cccc2c1CN(C(=O)[C@H]1C[C@H]1F)CC2 (relative stereo) [compound 460]
8 | 15 | CNCCN(Cc1ncccc1C(F)(F)F)C(=O)CNc1cccc2c1CCN(C(=O)C1CCOC1)C2 (racemic) [compound 417]
9 | 27 | COCCN1CCc2c(cccc2NCC(=O)N(CCN(C)CCF)Cc2ccccc2C(F)(F)F)C1 [Example 302, N-{2-[(2-Fluoro-ethyl)-methyl-amino]-ethyl}-2-[2-(2-methoxy-ethyl)-1,2,3,4-tetrahydro-isoquinolin-5-ylamino]-N-(2-trifluoromethyl-benzyl)-acetamide]
10 | 15 | CCCC(=O)N1CCc2c(cccc2NCC(=O)N(CCNC)Cc2ncccc2C(F)(F)F)C1 [compound 411, 2-(2-Butyryl-1,2,3,4-tetrahydro-isoquinolin-5-ylamino)-N-(2-methylamino-ethyl)-N-(3-trifluoromethyl-pyridin-2-ylmethyl)-acetamide]
11 | 120 | CCCCNC(=O)N1CCc2c(cccc2NCC(=O)N(CCNC)Cc2ncccc2C(F)(F)F)C1 [compound 431]

The next lines start with the compound.

Row | SMILES | EC50 [nM]
12 | CN(C)CCN(Cc1ccccc1)C(=O)CNc1cccc2c1CCN(C(=O)c1ccccc1)C2 [compound 125] | 240
13 | CN(C)CCN(Cc1ccccc1C(F)(F)F)C(=O)NCc1cccc2c1CN(CC1CC1)CC2 [Example 569, 3-(2-Cyclopropylmethyl-1,2,3,4-tetrahydro-isoquinolin-8-ylmethyl)-1-(2-dimethylamino-ethyl)-1-(2-trifluoromethyl-benzyl)-urea] | 26
14 | CC(c1ccccc1C(F)(F)F)N(CCN(C)C)C(=O)CNc1cccc2c1CCN(CC1CC1)C2 (racemic) [Example 58, rac-2-(2-Cyclopropylmethyl-1,2,3,4-tetrahydro-isoquinolin-5-ylamino)-N-(2-dimethylamino-ethyl)-N-[1-(2-trifluoromethyl-phenyl)-ethyl]-acetamide] | 16
15 | CN(C)CCN(Cc1ccccc1)C(=O)/C=C/c1cccc2c1CCN(C)C2 [compound 142, (E)-N-Benzyl-N-(2-dimethylamino-ethyl)-3-(2-methyl-1,2,3,4-tetrahydro-isoquinolin-5-yl)-acrylamide] | 23
16 | CCN1CCc2cccc(NCC(=O)N(CCN(C)C)Cc3cccc(C(F)(F)F)c3)c2C1 [compound 505, N-(2-Dimethylamino-ethyl)-2-(2-ethyl-1,2,3,4-tetrahydro-isoquinolin-8-ylamino)-N-(3-trifluoromethyl-benzyl)-acetamide] | 42
17 | CN1CCN(C(=O)CNc2cccc3c2CCN(CC2CC2)C3)C(c2ccccc2)C1 (racemic) [Reference Example 104, rac-2-(2-Cyclopropylmethyl-1,2,3,4-tetrahydro-isoquinolin-5-ylamino)-1-(4-methyl-2-phenyl-piperazin-1-yl)-ethanone] | 233
18 | CCN1CCc2cccc(NCC(=O)N(CCN(C)C)Cc3cccc(OC)c3)c2C1 [compound 498] | 118
19 | CN(C)CCN(Cc1ccc(Br)cc1)C(=O)CNc1cccc2c1CCN(CC1CC1)C2 [Example 238, N-(4-Bromo-benzyl)-2-(2-cyclopropylmethyl-1,2,3,4-tetrahydro-isoquinolin-5-ylamino)-N-(2-dimethylamino-ethyl)-acetamide] | 43
20 | CCN1CCc2cccc(NCC(=O)N(Cc3nc(C)cs3)Cc3ccccc3C(F)(F)F)c2C1 [compound 520] | 188
21 | CC(C)CCN(Cc1ccccc1)C(=O)CNc1cccc2c1CCN(C(=O)OC(C)(C)C)C2 [Example 9, 5-({[Benzyl-(3-methyl-butyl)-carbamoyl]-methyl}-amino)-3,4-dihydro-1H-isoquinoline-2-carboxylic acid tert-butyl ester] | 451
22 | CC(C)CN1Cc2cccc(NCC(=O)N(CCN(C)C)Cc3ccccc3C(F)(F)F)c2CC1=O [Example 312, N-(2-Dimethylamino-ethyl)-2-(2-isobutyl-3-oxo-1,2,3,4-tetrahydro-isoquinolin-5-ylamino)-N-(2-trifluoromethyl-benzyl)-acetamide] | 37
23 | CC(C)(C)OC(=O)N1CCC(CN(Cc2ccccc2C(F)(F)F)C(=O)CNc2cccc3c2CCN(CC2CC2)C3)C1 (centres unmarked) [Example 253, 3-{[[2-(2-Cyclopropylmethyl-1,2,3,4-tetrahydro-isoquinolin-5-ylamino)-acetyl]-(2-trifluoromethyl-benzyl)-amino]-methyl}-pyrrolidine-1-carboxylic acid tert-butyl ester] | 42
24 | CCN1CCc2c(cccc2NCC(=O)N(CCN(C)C)Cc2ccccc2)C1 [compound 107, N-Benzyl-N-(2-dimethylamino-ethyl)-2-(2-ethyl-1,2,3,4-tetrahydro-isoquinolin-5-ylamino)-acetamide] | 43
25 | CN1CCCC(N(Cc2ccccc2C(F)(F)F)C(=O)CNc2cccc3c2CCN(C(=O)OC(C)(C)C)C3)C1 (racemic) [Example 11, rac-5-({[(1-Methyl-piperidin-3-yl)-(2-trifluoromethyl-benzyl)-carbamoyl]-methyl}-amino)-3,4-dihydro-1H-isoquinoline-2-carboxylic acid tert-butyl ester] | 52
26 | CN(C)CCN(Cc1ccccc1C(F)(F)F)C(=O)CNc1cc(C(F)(F)F)cc2c1CCN(CC1CC1)C2 [Example 296, 2-(2-Cyclopropylmethyl-7-trifluoromethyl-1,2,3,4-tetrahydro-isoquinolin-5-ylamino)-N-(2-dimethylamino-ethyl)-N-(2-trifluoromethyl-benzyl)-acetamide] | 430
